Measured values: US20100029702A1, “Method For Identification of Compound Having Anti-Anxiety Effect” (priority 2006, published 2010)

Key:
variant 3 [1] = experiment: Changes in intracellular Ca2+ concentration in variant 3 gene stably-expressing strain; type: cell-based, human; settings: variant3/CHO#14-18; A23187 20 μM, positive control
Description: (§1) Strains stably expressing splicing variants of the variant 3 gene were prepared by a method similar to the above-mentioned method using a variant 3 gene-expressing vector.
(§2) To analyze functions of the variant 3 gene, changes in the intracellular calcium (Ca^2+) concentration induced by CCK-8S were examined using a strain stably expressing the variant 3 gene prepared in Example 7. Changes in the intracellular calcium (Ca^2+) concentration were measured by a method similar to the method described in Example 5.
(§3) Cells were seeded in a 96-well plate (a plate with a black wall and a transparent bottom) at a cell count of 3×10^4/100 μL of medium/well and cultured overnight at 37° C. in a 5% CO2 incubator. On the following day, 50 μL of the medium was removed from each well, 50 μL of a loading buffer was added to each well, the mixture was reacted at room temperature for 1 h, so that a fluorescent dye contained in the loading buffer was taken up into the cell. The loading buffer was prepared by a method similar to the method described in Example 5. After reaction, changes over time in the fluorescence intensity after addition of CCK-8S in each well were measured using the FLEX station (Molecular Device) for 40 sec. CCK-8S was used at a final concentration of 10 pM to 1 μM. Furthermore, as a positive control of the assay, A23187 was used at a final concentration of 20 μM.

variant 3 [2] = target: T1, variant 3 (Homo sapiens, UniProt O60241, DEL364-418); experiment: as above; type: cell-based; settings: variant 3 stably-expressing strain; CCK-8S 10 pM to 1 μM, figure at 1 nM
T1 construct: a vector expressing each full-length cDNA clone was constructed; expressed in transfected cells; host or cells: CHO-K1 (variant3/CHO#14-18), variant3/pcDNA3.1
T1 sequence (O60241 with tags, fused parts or gaps DEL364-418): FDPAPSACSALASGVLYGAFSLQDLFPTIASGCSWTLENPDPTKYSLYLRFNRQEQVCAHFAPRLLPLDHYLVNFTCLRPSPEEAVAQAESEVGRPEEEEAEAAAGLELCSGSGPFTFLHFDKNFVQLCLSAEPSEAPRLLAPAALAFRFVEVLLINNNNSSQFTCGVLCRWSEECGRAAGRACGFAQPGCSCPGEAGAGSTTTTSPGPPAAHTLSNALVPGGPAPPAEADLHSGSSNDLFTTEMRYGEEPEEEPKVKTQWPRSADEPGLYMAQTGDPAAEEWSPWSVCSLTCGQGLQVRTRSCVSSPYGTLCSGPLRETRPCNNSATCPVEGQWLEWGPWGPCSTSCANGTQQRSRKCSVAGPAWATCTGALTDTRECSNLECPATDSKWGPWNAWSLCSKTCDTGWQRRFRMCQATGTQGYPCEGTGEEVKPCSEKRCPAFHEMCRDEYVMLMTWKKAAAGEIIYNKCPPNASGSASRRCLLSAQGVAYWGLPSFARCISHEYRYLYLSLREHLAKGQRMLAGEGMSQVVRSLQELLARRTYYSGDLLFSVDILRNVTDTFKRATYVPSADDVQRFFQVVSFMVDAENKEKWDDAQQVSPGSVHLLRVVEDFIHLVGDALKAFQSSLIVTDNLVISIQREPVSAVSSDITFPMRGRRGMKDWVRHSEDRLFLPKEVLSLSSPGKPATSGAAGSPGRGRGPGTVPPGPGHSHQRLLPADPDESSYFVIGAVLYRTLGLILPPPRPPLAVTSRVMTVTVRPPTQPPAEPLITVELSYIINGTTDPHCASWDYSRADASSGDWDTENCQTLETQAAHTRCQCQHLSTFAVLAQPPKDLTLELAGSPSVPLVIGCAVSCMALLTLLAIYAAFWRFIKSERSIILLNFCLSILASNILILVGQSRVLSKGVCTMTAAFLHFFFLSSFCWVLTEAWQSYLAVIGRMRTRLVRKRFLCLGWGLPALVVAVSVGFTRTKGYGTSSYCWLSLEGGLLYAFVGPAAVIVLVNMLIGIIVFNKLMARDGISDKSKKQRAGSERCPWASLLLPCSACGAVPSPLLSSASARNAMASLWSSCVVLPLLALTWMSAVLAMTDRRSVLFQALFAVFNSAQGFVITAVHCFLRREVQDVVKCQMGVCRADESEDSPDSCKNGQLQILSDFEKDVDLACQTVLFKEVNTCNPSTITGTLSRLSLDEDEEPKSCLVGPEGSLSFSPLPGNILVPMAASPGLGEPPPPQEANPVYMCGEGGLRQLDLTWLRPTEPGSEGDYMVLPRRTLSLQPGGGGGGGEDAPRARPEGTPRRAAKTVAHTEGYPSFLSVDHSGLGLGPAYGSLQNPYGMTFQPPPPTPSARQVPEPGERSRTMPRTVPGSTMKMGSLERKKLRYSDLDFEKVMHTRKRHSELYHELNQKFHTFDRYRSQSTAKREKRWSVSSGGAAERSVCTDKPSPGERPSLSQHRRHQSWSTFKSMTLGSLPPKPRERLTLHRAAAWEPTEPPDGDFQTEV
Description: as §1, §2, §3

Row | Change in intracellular Ca2+ concentration after addition of CCK-8S (variant 3 [2]) | Compound | Change in intracellular Ca2+ concentration (fluorescence intensity) (variant 3 [1])
1 | – | CNc1ccc2oc(C[C@H]3O[C@@]4(CC[C@H]3C)O[C@H]([C@H](C)C(=O)c3ccc[nH]3)[C@H](C)C[C@H]4C)nc2c1C(=O)O [A23187] | increased
2 | increase | cholecystokinin octapeptide sulfated form [CCK-8S] | –
